Source: patent publication US10322103B2, “Compositions for prevention/prophylactic treatment of poison ivy dermatitis” (The University of Mississippi, priority 2008, dated 2019)
One block for each molecule: values may come before it.

How the values were obtained:
[1] = test system: urushiol contact dermatitis; assay: Induction of tolerance to poison ivy/poison oak urushiol in the guinea pig contact dermatitis model; assay type: in vivo, Hartley guinea pigs; conditions: for erythema at the exposure site / erythema or edema observed: Test #1; for erythema at the exposure site: 24, 48 or 72 hrs post challenge, urushiol 3.0, 4.5 and 6.0 ug; for erythema or edema at the site of urushiol challenge: 24 hours, any of the doses used; for skin lesion scores compared to groups IV and V: all the 3 tests
Source text: Animals: Hartley strains of guinea pigs (n=40) were obtained from Harlan, Indianapolis Ind. 46229. The animals were divided in the 5 groups (n=8/group) and treated as described hereunder. These animals were kept in a controlled environment with a 12-hour day and night cycle and provided feed and water ad libitum. Study design: FIG. 8 describes the general procedure for determining the efficacy of the agents produced according to the present invention.
Application sites of urushiol challenge doses on abdominal skin are shown in FIG. 9, and are described below.
Group I. Animals in this group were given the compound (4) (HDC 4-(4-aminophenyl) butyrate ester) via the intramuscular (IM) route; 300 ul of the equivalent of 20 mg/mL solution of the free catechol in 5% ethanol in each hind leg. Two weeks later these animals were sensitized with urushiol (100 uL acetone containing 1.0 mg of urushiol) on the surface skin in the neck region. Two weeks later the animals were challenged with urushiol (15 uL volume acetone containing 3.0 ug, 4.5 ug or 6.0 ug) on the abdominal skin in a volume of 15 uL. The vehicle contained 15 uL of acetone (see diagram 2). The animals were tested 3 times after sensitization: Test #1 at two weeks post sensitization, test #2 conducted at four weeks post sensitization and test #3 was conducted twelve weeks post sensitization.
Group II. Animals were given 300 uL of the equivalent of 20 mg/mL solution of the free catechol in 5% ethanol of HDC Phenyl alaninate ester (compound 3) via the IM route in each hind leg (total 600 uL). This was followed by sensitization with urushiol on the neck, and then tested with urushiol challenge on the abdominal skin as described for group I.
Group III. Animals were given 300 uL of the equivalent of 20 mg/mL solution of the free catechol in 5% ethanol of HDC Hemiglutarate ester (compound 5) via the IM route in each hind leg. This was followed, two weeks later, by sensitization with (urushiol 100 uL) on the neck, followed by abdominal skin test as described for group I.
Group IV. Animals were given 300 uL of vehicle (5% ethanol) via the IM route in each of the hind legs. This was followed, two weeks later, by sensitization and then followed by abdominal skin test as described for group I.
Group V. Animals in this group were given PBS (300 uL in each of the hind legs) via the IM route. This was followed two weeks later by sensitization and then followed by abdominal skin test as described for group I.
After challenging the animals with urushiol on their abdominal skin, the severity of Erythema and Edema were observed and scored according to the Draize scoring system as shown below. The scores were recorded at 24, 48 and 72 hrs post urushiol skin application.

[2] = Polarity: dissolution in ethanol and dilution with aqueous medium; assay type: physicochemical
Source text: Polarity of HDC-Phenyl Alaninate Ester:

[3] = Test #2, 48 hours, urushiol challenge dose 4.5 ug
[4] = Test #2, 48 hours, urushiol challenge dose 6.0 ug

appearance of solution (polarity) ([2]; 10 mg dissolved in 50 ul of ethanol, adjusted to 1 ml with water): formed a homogenous solution
Compound: CCCCCCCCCCCCCCCCCc1cccc(OC(=O)[C@@H](N)Cc2ccccc2)c1OC(=O)[C@@H](N)Cc1ccccc1 [Compound 3, HDC-Phenyl Alaninate Ester]
erythema at the exposure site [1]: did not show any or showed very slight erythema
erythema or edema observed ([1]; 48 hours post challenge): no erythema or edema was observed
erythema or edema observed ([1]; 72 hours post challenge): no erythema or edema was observed
skin lesion score ([1]; Test #2, 48 hours, all challenge doses): ≤ 1.0
erythema or edema at the site of urushiol challenge ([1]; Test #3): did not show erythema or edema
lesion score ([1]; Test #3, 48 hours): ≤ 1.0
skin lesion scores compared to groups IV and V [1]: negligible

appearance of solution (polarity) ([2]; 10 mg as a HCl salt in 50 ul of ethanol, adjusted to 1 mL with water (10 mg/mL)): clear solution
Compound: CCCCCCCCCCCCCCCCCc1cccc(OC(=O)CCCc2ccc(N)cc2)c1OC(=O)CCCc1ccc(N)cc1 [Compound 4]
erythema at the exposure site [1]: did not show any or showed very slight erythema
erythema or edema observed ([1]; 48 hours post challenge): no erythema or edema was observed
erythema or edema observed ([1]; 72 hours post challenge): no erythema or edema was observed
total skin lesion score [1, 3]: 1.5
total skin lesion score [1, 4]: 1.5
erythema or edema at the site of urushiol challenge ([1]; Test #3): did not show erythema or edema
skin lesion scores compared to groups IV and V [1]: negligible

appearance of solution (polarity) ([2]; 10 mg in 50 ul of ethanol, adjusted to 1 ml with potassium phosphate buffer (pH 8)): formed a homogenous solution
Compound: CCCCCCCCCCCCCCCCCc1cccc(OC(=O)CCCC(=O)O)c1OC(=O)CCCC(=O)O [Compound 5, 5,5′(3-heptadecyl-1,2-phenylene)bis(oxy)bis(5-oxopentanoic acid)]
erythema at the exposure site [1]: did not show any or showed very slight erythema
erythema or edema observed ([1]; 48 hours post challenge): no erythema or edema was observed
erythema or edema observed ([1]; 72 hours post challenge): no erythema or edema was observed
total skin lesion score [1, 3]: 1.0
total skin lesion score [1, 4]: 2.5
total lesion score ([1]; Test #2, 72 hours): ≤ 2.0
erythema or edema at the site of urushiol challenge ([1]; Test #3): did not show erythema or edema
skin lesion scores compared to groups IV and V [1]: negligible
